Test results taken from ChEMBL document CHEMBL1141027, “HY251, a novel cell cycle inhibitor isolated from Aralia continentalis, induces G1 phase arrest via p53-dependent pathway in HeLa cells” (2009).
Calls of active or inactive are those of the source. The calls are words filed in the database; no cut-off is given here.

Assays:
HeLa [1] = test: Increase in ataxia telangiectasia mutated gene expression in human HeLa cells after 24 hrs by RT-PCR relative to control; assay type: functional
HeLa [2] = test: Cell cycle arrest in human HeLa cells assessed as accumulation at G1 phase at 100 uM treated 12 hrs after nocodazole challenge by flow cytometry; assay type: functional, cell-based; conditions: TDE = time-dependent effect
HeLa [3] = test: Increase in p27KIP1 level in human HeLa cells at 100 uM by Western blotting; assay type: functional, cell-based; conditions: TDE = time-dependent effect
HeLa [4] = test: Cell cycle arrest in human HeLa cells assessed as accumulation at G2/M phase at 100 uM treated 12 hrs after nocodazole challenge measured after 24 hrs by flow cytometry; assay type: functional
HeLa [5] = test: Cell cycle arrest in human HeLa cells assessed as accumulation at G1 phase at 100 uM treated 12 hrs after nocodazole challenge measured after 24 hrs by flow cytometry; assay type: functional
HeLa [6] = test: Cell cycle arrest in human HeLa cells assessed as accumulation at G2/M phase at 50 ng/ml after 12 hrs by flow cytometry; assay type: functional
HeLa [7] = test: Cell cycle arrest in human HeLa cells assessed as accumulation at G2/M phase at 100 uM treated 12 hrs after nocodazole challenge measured after 12 hrs by flow cytometry; assay type: functional
[8] = target: Cyclin-dependent kinase 4 (Homo sapiens) (UniProt P11802); test: Inhibition of CDK4 in human HeLa cells by immunoprecipitation kinase assay; assay type: cell-based
HeLa [9] = test: Increase in p21CIP1 level in human HeLa cells at 100 uM by Western blotting; assay type: functional, cell-based; conditions: TDE = time-dependent effect
HeLa [10] = test: Decrease in cyclin D3 expression in human HeLa cells at 100 uM by Western blotting; assay type: functional, cell-based; conditions: TDE = time-dependent effect
HeLa [11] = test: Increase in ataxia telangiectasia mutated gene expression in human HeLa cells after 12 hrs by RT-PCR relative to control; assay type: functional
HeLa [12] = test: Cell cycle arrest in human HeLa cells assessed as accumulation at G2/M phase at 100 uM treated 12 hrs after nocodazole challenge measured after 6 hrs by flow cytometry; assay type: functional
[13] = target: Cellular tumor antigen p53 (Homo sapiens) (UniProt P04637); test: Increase in p53-Ser15 phosphorylation in human HeLa cells at 100 uM by Western blotting; assay type: cell-based
HeLa [14] = test: Cell cycle arrest in human HeLa cells assessed as accumulation at G1 phase at 100 uM treated 12 hrs after nocodazole challenge measured after 6 hrs by flow cytometry; assay type: functional
HeLa [15] = test: Cell cycle arrest in human HeLa cells assessed as accumulation at G1 phase at 100 uM treated 12 hrs after nocodazole challenge measured after 12 hrs by flow cytometry; assay type: functional
HeLa [16] = test: Cell cycle arrest in human HeLa cells assessed as accumulation at G1 phase at 50 ng/ml after 12 hrs by flow cytometry; assay type: functional
HeLa [17] = test: Increase in hypophosphorylated pRb level in human HeLa cells at 100 uM by Western blotting; assay type: functional, cell-based; conditions: TDE = time-dependent effect
[18] = target: Glycogen synthase kinase-3 beta (Homo sapiens) (UniProt P49841); test: Inhibition of GSK3-beta in human HeLa cells by immunoprecipitation kinase assay; assay type: cell-based
[19] = target: Cyclin-dependent kinase 2 (Homo sapiens) (UniProt P24941); test: Inhibition of CDK2 in human HeLa cells by immunoprecipitation kinase assay; assay type: cell-based

Sequence of Cyclin-dependent kinase 4 (Homo sapiens) (P11802 whole entry): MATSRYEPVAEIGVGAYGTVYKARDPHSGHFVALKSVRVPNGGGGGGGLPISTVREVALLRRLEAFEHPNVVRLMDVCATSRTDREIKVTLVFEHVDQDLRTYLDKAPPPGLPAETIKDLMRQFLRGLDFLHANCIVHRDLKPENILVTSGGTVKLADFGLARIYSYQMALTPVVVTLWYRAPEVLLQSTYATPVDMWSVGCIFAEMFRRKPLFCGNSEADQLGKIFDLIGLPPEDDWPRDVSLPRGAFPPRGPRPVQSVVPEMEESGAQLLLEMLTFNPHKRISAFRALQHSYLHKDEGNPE
Sequence of Cellular tumor antigen p53 (Homo sapiens) (P04637 whole entry, looked up): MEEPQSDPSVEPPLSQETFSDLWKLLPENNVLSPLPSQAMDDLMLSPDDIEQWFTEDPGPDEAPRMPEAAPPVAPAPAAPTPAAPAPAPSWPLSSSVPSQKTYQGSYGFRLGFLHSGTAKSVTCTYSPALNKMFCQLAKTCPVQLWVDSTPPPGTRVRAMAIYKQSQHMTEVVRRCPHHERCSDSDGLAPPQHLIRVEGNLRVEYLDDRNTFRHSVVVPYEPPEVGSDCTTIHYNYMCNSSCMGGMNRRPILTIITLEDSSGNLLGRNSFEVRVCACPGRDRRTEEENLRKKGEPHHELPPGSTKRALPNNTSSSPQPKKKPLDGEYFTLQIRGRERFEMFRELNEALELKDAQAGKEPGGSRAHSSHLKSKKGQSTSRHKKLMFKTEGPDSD
Sequence of Glycogen synthase kinase-3 beta (Homo sapiens) (P49841 whole entry, looked up): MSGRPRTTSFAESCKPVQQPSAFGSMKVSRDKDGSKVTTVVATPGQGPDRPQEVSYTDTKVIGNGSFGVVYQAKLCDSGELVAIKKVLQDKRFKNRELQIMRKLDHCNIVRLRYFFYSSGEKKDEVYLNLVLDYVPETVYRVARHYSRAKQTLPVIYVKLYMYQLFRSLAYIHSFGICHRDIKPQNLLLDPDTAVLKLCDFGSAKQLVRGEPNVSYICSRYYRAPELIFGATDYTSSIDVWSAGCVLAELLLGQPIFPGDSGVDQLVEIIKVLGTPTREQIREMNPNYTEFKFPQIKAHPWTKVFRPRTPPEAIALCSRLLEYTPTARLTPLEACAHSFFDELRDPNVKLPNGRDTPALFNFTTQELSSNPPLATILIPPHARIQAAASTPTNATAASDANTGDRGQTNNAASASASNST

## C=CC1CC2(O)CC3(O)CCC=CC3C2(O)C1(O)CCC (centres undefined)
HeLa [1]
  fold change (FC): 3.8
HeLa [2]
  Activity: tde
HeLa [3]
  Activity: tde
HeLa [4]
  Activity: 11%
HeLa [5]
  Activity: 52%
HeLa [6]
  Activity: 68%
HeLa [7]
  Activity: 21%
[8]
  Activity: inactive
HeLa [9]
  Activity: tde
HeLa [10]
  Activity: tde
HeLa [11]
  fold change (FC): 3.1
HeLa [12]
  Activity: 37%
[13]
  Activity: Active
HeLa [14]
  Activity: 35%
HeLa [15]
  Activity: 48%
HeLa [16]
  Activity: 4%
HeLa [17]
  Activity: tde
[18]
  Activity: inactive
[19]
  Activity: inactive
